Measurements as given in ChEMBL document CHEMBL1955743, “Potent inhibitors of LpxC for the treatment of Gram-negative infections” (J Med Chem, 2012).
Converted amounts (≈) assume the structure as drawn.

Experiments:
[1] = test system: Pseudomonas aeruginosa; test: Antibacterial activity against Pseudomonas aeruginosa PAO1 after 16 to 20 hrs by broth microdilution method; assay type: functional
[2] = test system: Staphylococcus aureus; test: Antibacterial activity against Staphylococcus aureus ATCC 29213 after 16 to 20 hrs by broth microdilution method; assay type: functional
[3] = test system: Pseudomonas aeruginosa; test: Antibacterial activity against mexAB-OprM,mexXY,MexZ-deficient Pseudomonas aeruginosa PAO280 by broth microdilution technique; assay type: functional
[4] = test system: Pseudomonas aeruginosa; test: Antibacterial activity against Pseudomonas aeruginosa after 16 to 20 hrs by broth microdilution method; assay type: functional
[5] = test system: Klebsiella pneumoniae; test: Antibacterial activity against Klebsiella pneumoniae after 16 to 20 hrs by broth microdilution method; assay type: functional
[6] = test system: Escherichia coli; test: Antibacterial activity against Escherichia coli after 16 to 20 hrs by broth microdilution method; assay type: functional
[7] = test system: Klebsiella aerogenes; test: Antibacterial activity against Enterobacter aerogenes after 16 to 20 hrs by broth microdilution method; assay type: functional
[8] = test system: Citrobacter freundii; test: Antibacterial activity against Citrobacter freundii after 16 to 20 hrs by broth microdilution method; assay type: functional
[9] = test system: Acinetobacter baumannii; test: Antibacterial activity against Acinetobacter baumannii after 16 to 20 hrs by broth microdilution method; assay type: functional
[10] = biological target: Interstitial collagenase (Homo sapiens, UniProt P03956); test: Inhibition of human MMP1
[11] = biological target: Stromelysin-1 (Homo sapiens, UniProt P08254); test: Inhibition of human MMP3
[12] = biological target: Matrilysin (Homo sapiens, UniProt P09237); test: Inhibition of human MMP7
[13] = biological target: Neutrophil collagenase (Homo sapiens, UniProt P22894); test: Inhibition of human MMP8
[14] = biological target: Matrix metalloproteinase-9 (Homo sapiens, UniProt P14780); test: Inhibition of human MMP9
[15] = biological target: Stromelysin-2 (Homo sapiens, UniProt P09238); test: Inhibition of human MMP10
[16] = biological target: Macrophage metalloelastase (Homo sapiens, UniProt P39900); test: Inhibition of human MMP12
[17] = biological target: Collagenase 3 (Homo sapiens, UniProt P45452); test: Inhibition of human MMP13
[18] = biological target: Matrix metalloproteinase-14 (Homo sapiens, UniProt P50281); test: Inhibition of human MMP14
[19] = biological target: Matrix metalloproteinase-15 (Homo sapiens, UniProt P51511); test: Inhibition of human MMP15
[20] = biological target: Matrix metalloproteinase-16 (Homo sapiens, UniProt P51512); test: Inhibition of human MMP16
[21] = biological target: Matrix metalloproteinase-20 (Homo sapiens, UniProt O60882); test: Inhibition of human MMP20
[22] = biological target: Matrix metalloproteinase-24 (Homo sapiens, UniProt Q9Y5R2); test: Inhibition of human MMP24
[23] = biological target: Matrix metalloproteinase-25 (Homo sapiens, UniProt Q9NPA2); test: Inhibition of human MMP25
[24] = biological target: Matrix metalloproteinase-26 (Homo sapiens, UniProt Q9NRE1); test: Inhibition of human MMP26
[25] = biological target: Disintegrin and metalloproteinase domain-containing protein 17 (Homo sapiens, UniProt P78536); test: Inhibition of human TACE
[26] = biological target: T1, Sodium-dependent noradrenaline transporter (Homo sapiens, UniProt P23975); test: Inhibition of human norepinephrine transporter
[27] = Inhibition of PDE11
[28] = Clearance in rat at 10 mg/kg, iv; assay type: ADME, organism-based; parameters: dose 10 mg/kg, route intravenous; details: in vivo
[29] = Volume of distribution at steady state in rat at 10 mg/kg, iv; assay type: ADME, organism-based; parameters: dose 10 mg/kg, route intravenous; details: in vivo, read-out: Vdss
[30] = AUC in rat at 10 mg/kg, iv; assay type: ADME, organism-based; parameters: dose 10 mg/kg, route intravenous; details: plasma
[31] = Half life in rat at 10 mg/kg, iv; assay type: ADME, organism-based; parameters: dose 10 mg/kg, route intravenous; details: in vivo
[32] = Fraction unbound in human plasma; assay type: ADME, cell-free
[33] = test system: Pseudomonas aeruginosa; test: Antibacterial activity against penicillin-resistant,quinolone-sensitive Pseudomonas aeruginosa UC12120 clinical isolate infected in sc dosed mouse administered 0.5 and 4 hrs post-infection measured after 24 hrs; assay type: functional
[34] = test system: Pseudomonas aeruginosa; test: Antibacterial activity against penicillin-resistant,quinolone-sensitive Pseudomonas aeruginosa UC12120 clinical isolate infected in mouse assessed as log reduction in bacterial burden in spleen administered 0.5 and 4 hrs post-infection measured after 24 hrs; assay type: functional
[35] = test system: Pseudomonas aeruginosa; test: Antibacterial activity against penicillin-resistant,quinolone-sensitive Pseudomonas aeruginosa UC12120 clinical isolate infected in sc dosed mouse assessed as host survival administered 0.5 and 4 hrs post-infection measured after 96 hrs; assay type: functional; details: read-out: PD50
[36] = test system: Pseudomonas aeruginosa; test: Antibacterial activity against Pseudomonas aeruginosa clinical isolates after 16 to 20 hrs by broth microdilution method; assay type: functional
[37] = biological target: T1, Sodium-dependent noradrenaline transporter; details: 10 uM
Description: Inhibition of human norepinephrine transporter at 10 uM

T1 sequence (P23975 whole entry): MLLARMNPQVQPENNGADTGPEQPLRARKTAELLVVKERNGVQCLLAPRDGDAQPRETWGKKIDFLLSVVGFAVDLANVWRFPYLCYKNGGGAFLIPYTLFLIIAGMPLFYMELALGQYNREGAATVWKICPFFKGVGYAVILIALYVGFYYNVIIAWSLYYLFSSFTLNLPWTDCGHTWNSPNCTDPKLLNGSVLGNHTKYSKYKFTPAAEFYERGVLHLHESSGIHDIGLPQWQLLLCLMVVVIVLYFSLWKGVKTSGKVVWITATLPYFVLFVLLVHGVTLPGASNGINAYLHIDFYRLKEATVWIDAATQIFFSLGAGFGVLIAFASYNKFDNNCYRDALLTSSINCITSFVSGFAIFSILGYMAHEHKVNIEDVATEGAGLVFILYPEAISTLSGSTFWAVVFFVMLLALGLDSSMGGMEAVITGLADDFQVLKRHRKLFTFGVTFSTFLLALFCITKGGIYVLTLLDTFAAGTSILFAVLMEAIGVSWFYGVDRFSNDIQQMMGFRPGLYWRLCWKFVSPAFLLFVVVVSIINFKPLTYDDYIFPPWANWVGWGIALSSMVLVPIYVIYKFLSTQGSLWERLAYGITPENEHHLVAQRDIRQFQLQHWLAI
Chain of Disintegrin and metalloproteinase domain-containing protein 17 (P78536 whole entry, the tested form may be a part): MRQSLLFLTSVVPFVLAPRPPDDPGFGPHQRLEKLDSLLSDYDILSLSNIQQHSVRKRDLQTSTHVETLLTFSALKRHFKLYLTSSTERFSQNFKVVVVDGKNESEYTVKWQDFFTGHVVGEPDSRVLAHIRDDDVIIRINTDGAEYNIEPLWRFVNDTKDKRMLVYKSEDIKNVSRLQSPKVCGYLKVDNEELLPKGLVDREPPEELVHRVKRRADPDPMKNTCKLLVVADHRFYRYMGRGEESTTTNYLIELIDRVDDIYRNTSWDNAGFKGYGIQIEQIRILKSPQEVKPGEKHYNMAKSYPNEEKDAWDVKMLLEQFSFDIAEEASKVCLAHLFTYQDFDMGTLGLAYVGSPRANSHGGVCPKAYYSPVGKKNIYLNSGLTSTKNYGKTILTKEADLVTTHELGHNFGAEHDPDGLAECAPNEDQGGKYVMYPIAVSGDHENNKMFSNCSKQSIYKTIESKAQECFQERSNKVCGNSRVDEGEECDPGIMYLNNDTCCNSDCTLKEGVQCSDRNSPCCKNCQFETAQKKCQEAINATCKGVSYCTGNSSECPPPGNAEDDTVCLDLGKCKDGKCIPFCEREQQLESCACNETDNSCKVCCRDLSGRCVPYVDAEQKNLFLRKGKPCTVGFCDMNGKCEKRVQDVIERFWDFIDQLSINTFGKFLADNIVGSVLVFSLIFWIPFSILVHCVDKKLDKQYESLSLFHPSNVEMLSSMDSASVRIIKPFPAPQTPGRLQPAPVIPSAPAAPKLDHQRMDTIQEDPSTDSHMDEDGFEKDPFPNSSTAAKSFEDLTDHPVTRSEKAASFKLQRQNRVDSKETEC
Chain of Macrophage metalloelastase (P39900 whole entry): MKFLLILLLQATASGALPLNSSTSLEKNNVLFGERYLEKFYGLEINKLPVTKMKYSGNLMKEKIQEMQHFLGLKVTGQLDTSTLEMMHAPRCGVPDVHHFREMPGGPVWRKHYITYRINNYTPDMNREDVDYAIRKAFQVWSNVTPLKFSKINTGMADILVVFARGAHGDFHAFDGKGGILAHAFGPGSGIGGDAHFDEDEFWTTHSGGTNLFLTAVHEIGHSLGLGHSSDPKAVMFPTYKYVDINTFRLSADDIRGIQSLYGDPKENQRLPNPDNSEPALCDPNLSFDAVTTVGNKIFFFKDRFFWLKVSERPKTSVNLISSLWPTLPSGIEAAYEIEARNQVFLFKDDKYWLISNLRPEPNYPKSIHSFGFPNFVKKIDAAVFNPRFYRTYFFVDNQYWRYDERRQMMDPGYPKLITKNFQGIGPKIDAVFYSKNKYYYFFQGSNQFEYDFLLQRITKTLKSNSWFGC
Chain of Matrix metalloproteinase-26 (Q9NRE1 whole entry, the tested form may be a part): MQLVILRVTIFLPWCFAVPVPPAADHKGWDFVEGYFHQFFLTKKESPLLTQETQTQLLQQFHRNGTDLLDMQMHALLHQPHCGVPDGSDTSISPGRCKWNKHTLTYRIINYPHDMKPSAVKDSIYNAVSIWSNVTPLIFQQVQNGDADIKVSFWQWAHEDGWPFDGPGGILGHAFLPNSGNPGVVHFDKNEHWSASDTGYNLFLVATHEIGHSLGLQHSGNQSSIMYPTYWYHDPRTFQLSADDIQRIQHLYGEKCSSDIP
Chain of Stromelysin-1 (P08254 whole entry): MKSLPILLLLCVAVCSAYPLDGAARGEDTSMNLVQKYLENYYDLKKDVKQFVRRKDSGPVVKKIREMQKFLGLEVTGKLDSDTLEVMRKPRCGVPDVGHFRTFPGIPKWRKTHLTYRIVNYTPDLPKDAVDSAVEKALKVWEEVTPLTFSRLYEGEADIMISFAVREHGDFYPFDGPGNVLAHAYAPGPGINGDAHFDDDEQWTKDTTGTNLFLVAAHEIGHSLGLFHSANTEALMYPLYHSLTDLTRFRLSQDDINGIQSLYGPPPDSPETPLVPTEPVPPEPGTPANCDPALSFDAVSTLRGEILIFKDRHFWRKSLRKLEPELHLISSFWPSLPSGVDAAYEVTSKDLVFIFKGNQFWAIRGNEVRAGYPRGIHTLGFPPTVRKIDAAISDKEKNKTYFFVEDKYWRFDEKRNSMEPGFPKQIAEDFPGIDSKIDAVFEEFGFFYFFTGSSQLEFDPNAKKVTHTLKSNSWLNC
Chain of Matrix metalloproteinase-25 (Q9NPA2 whole entry): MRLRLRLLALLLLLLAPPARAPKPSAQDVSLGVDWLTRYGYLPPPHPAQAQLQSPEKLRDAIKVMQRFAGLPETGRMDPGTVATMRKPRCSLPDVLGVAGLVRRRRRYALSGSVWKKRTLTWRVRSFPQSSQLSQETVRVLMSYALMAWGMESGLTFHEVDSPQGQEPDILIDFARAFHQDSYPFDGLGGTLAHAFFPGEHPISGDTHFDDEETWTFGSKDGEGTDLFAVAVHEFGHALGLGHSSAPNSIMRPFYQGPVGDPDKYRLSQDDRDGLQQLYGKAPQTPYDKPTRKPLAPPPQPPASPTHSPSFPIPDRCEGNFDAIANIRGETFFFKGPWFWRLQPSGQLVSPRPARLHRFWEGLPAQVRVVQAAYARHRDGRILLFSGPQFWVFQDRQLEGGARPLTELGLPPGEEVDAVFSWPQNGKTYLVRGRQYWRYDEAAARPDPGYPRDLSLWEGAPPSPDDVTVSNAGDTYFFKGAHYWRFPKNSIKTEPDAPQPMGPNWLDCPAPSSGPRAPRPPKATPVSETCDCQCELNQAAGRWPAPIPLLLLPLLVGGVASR
Chain of Stromelysin-2 (P09238 whole entry): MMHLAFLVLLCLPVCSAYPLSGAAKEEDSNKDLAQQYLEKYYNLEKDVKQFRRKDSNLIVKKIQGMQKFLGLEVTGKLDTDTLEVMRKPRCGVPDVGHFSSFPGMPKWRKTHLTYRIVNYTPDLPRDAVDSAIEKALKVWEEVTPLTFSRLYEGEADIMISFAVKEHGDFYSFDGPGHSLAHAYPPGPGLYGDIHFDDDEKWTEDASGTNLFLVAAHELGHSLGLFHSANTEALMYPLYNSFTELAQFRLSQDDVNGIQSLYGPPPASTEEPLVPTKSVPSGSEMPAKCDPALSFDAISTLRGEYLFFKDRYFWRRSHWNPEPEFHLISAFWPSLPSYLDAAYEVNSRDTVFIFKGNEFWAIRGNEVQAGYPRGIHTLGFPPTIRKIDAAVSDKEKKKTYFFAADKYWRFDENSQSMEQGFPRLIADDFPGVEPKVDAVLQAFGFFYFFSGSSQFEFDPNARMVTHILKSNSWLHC
Chain of Matrix metalloproteinase-20 (O60882 whole entry): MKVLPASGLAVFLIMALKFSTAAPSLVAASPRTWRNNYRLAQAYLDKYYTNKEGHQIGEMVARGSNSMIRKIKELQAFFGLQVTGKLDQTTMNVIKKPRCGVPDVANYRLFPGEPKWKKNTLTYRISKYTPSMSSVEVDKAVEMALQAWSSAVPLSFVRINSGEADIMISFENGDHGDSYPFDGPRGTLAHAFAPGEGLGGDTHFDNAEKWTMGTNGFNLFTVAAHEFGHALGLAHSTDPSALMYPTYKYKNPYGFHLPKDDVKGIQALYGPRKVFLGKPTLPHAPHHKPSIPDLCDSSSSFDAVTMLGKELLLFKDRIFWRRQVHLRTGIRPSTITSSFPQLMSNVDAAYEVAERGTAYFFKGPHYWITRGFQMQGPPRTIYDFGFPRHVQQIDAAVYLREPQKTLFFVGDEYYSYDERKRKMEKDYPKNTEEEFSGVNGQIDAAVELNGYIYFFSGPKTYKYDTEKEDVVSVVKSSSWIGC
Chain of Matrix metalloproteinase-15 (P51511 whole entry): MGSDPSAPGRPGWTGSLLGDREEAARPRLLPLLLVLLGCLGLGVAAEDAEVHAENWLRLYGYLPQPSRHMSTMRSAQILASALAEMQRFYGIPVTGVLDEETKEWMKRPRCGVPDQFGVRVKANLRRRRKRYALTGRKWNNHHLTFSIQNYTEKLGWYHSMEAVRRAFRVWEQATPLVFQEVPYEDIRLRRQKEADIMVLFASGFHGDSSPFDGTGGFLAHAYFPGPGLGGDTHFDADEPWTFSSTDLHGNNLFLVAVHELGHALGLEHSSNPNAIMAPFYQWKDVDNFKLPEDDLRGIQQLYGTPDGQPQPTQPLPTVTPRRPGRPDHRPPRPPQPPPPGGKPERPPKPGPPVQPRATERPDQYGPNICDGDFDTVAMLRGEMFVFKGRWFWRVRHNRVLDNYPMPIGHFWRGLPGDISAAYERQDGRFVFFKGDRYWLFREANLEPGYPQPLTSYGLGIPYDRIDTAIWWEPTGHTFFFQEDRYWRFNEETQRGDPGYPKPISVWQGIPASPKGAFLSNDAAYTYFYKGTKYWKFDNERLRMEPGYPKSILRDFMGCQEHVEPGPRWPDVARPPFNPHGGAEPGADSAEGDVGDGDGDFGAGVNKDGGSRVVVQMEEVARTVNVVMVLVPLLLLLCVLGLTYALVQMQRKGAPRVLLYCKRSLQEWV

In the case of `C[C@@](CCc1ccc(-c2ccccc2)cc1)(C(=O)NO)S(C)(=O)=O`, the MIC [1] is reported as 0.125 µg/mL (≈ 0.36 µM), the MIC [2] is reported as greater than 64 µg/mL and the MIC [3] is reported as 0.008 µg/mL (≈ 0.023 µM). The MIC90 [4] was 4 µg/mL (≈ 11.5 µM), the MIC90 [5] was 16 µg/mL (≈ 46.1 µM) and the MIC90 [6] was 2 µg/mL (≈ 5.76 µM). For the same compound, the MIC90 [7] was 4 µg/mL (≈ 11.5 µM), the MIC90 [8] was 8 µg/mL (≈ 23 µM) and the MIC90 [9] was 32 µg/mL (≈ 92.1 µM). For the same compound, the Ki [10] was greater than 10 µM, the Ki [11] was greater than 10 µM and the Ki [12] was greater than 10 µM. The Ki [13] was greater than 10 µM, the Ki [14] was greater than 10 µM and the Ki [15] was greater than 10 µM. For the same compound, the Ki [16] was 1.35 µM, the Ki [17] was 7.73 µM and the Ki [18] was greater than 10 µM. It also gave a Ki [19] greater than 10 µM, a Ki [20] greater than 10 µM and a Ki [21] greater than 10 µM. For the same compound, the Ki [22] was greater than 10 µM, the Ki [23] was greater than 10 µM and the Ki [24] was greater than 10 µM. The Ki [25] was greater than 10 µM, the IC50 [26] was 0.34 µM and the Ki [26] was 0.25 µM. It also gave an IC50 [27] of 18 µM, a clearance [28] of 58 mL/min/kg and a Vd [29] of 2.7 L/kg. For the same compound, the AUC [30] was 2800 ng·h/mL, the half-life [31] was 3.2 h and the fraction unbound [32] was 0.02. For the same compound, the ED50 [33] was 35 mg/kg, the FC [34] was 6.2 and the ED50 [35] was 63.4 mg/kg. It also gave an MIC50 [36] of 0.5 µg/mL (≈ 1.44 µM), an MIC90 [36] of 2 µg/mL (≈ 5.76 µM) and an inhibition [37] greater than 50%.
